Measurements: ChEMBL document CHEMBL5532744, “2-Aminopyridines as Potent and Selective Nav1.8 Inhibitors Exhibiting Efficacy in a Nonhuman Primate Pain Model” (ACS Med Chem Lett, 2024)
In brackets after ≈: the same amount, converted by molar mass.

Tests used:
[1] = molecular target: Sodium channel protein type 10 subunit alpha (Homo sapiens, UniProt Q9Y5Y9); assay: Inhibition of recombinant human Nav1.8 expressed in HEK293 cells by whole cell patch clamp method; assay type: cell-based
[2] = Solubility of the compound at pH 7; assay type: physicochemical; settings: buffer
[3] = Half-life in rat plasma at 0.05 mg/kg, iv administered as cassette dose; assay type: ADME, organism-based
[4] = Unbound clearance in rat at 0.05 mg/kg, iv administered as cassette dose; assay type: ADME, organism-based; settings: in vivo
[5] = molecular target: Sodium channel protein type 10 subunit alpha (Rattus norvegicus, UniProt Q62968); assay: Inhibition of rat neuronal Nav1.8 by patch clamp electrophysiology
[6] = molecular target: Sodium channel protein type 5 subunit alpha (Homo sapiens, UniProt Q14524); assay: Inhibition of Nav1.5 (unknown origin)
[7] = molecular target: Sodium channel protein type 9 subunit alpha (Homo sapiens, UniProt Q15858); assay: Inhibition of Nav1.7 (unknown origin)
[8] = molecular target: Sodium channel protein type 8 subunit alpha (Homo sapiens, UniProt Q9UQD0); assay: Inhibition of Nav1.6 (unknown origin)

Chain of Sodium channel protein type 10 subunit alpha (Homo sapiens, UniProt Q9Y5Y9) (Q9Y5Y9 whole entry): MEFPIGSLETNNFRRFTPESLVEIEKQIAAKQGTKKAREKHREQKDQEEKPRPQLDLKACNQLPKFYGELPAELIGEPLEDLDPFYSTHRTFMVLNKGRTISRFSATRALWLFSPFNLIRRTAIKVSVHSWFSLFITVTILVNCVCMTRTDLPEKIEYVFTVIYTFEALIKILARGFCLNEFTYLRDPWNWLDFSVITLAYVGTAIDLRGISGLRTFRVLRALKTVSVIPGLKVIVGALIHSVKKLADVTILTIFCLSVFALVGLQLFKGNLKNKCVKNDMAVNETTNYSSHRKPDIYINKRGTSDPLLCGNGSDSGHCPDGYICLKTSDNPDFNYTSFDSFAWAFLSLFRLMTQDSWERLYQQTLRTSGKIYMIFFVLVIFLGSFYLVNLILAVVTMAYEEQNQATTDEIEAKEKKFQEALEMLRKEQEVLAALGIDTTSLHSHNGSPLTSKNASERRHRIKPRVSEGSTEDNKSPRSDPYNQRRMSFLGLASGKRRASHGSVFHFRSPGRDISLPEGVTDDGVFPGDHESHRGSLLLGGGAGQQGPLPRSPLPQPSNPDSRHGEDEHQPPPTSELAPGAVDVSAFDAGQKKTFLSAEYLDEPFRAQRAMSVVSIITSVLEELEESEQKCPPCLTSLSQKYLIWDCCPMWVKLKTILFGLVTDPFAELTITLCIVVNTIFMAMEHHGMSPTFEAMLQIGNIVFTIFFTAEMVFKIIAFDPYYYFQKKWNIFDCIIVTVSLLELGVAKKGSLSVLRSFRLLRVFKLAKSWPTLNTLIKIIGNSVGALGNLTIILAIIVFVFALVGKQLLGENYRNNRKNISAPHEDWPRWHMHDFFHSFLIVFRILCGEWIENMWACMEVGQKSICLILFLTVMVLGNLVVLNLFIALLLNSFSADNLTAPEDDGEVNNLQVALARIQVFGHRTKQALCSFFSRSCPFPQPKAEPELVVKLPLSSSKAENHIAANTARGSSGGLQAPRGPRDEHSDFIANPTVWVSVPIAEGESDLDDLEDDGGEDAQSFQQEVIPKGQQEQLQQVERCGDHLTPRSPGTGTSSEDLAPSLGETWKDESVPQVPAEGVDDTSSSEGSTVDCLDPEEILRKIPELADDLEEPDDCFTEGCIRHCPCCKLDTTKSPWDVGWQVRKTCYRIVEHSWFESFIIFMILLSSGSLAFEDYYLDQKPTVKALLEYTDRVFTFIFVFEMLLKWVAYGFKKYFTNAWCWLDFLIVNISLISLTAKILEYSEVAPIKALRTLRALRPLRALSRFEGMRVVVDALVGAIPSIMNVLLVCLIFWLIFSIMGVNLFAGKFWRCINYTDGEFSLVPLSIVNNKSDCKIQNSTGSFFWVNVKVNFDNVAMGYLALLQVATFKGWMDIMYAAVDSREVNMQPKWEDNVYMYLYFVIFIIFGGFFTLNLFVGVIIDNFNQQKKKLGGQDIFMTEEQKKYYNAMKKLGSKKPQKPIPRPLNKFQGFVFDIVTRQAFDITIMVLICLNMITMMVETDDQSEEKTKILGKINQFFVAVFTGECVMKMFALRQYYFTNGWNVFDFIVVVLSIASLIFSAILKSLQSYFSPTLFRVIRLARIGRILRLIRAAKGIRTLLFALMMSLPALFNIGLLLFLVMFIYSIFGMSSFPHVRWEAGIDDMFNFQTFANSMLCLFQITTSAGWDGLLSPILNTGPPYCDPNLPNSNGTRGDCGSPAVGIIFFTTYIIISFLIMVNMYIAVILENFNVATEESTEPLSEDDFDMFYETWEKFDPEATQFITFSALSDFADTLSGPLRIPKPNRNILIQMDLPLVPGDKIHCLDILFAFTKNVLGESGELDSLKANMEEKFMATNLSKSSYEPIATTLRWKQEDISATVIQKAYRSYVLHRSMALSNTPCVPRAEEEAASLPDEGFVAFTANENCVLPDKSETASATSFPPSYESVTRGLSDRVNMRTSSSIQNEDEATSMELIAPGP
Chain of Sodium channel protein type 9 subunit alpha (Q15858 whole entry): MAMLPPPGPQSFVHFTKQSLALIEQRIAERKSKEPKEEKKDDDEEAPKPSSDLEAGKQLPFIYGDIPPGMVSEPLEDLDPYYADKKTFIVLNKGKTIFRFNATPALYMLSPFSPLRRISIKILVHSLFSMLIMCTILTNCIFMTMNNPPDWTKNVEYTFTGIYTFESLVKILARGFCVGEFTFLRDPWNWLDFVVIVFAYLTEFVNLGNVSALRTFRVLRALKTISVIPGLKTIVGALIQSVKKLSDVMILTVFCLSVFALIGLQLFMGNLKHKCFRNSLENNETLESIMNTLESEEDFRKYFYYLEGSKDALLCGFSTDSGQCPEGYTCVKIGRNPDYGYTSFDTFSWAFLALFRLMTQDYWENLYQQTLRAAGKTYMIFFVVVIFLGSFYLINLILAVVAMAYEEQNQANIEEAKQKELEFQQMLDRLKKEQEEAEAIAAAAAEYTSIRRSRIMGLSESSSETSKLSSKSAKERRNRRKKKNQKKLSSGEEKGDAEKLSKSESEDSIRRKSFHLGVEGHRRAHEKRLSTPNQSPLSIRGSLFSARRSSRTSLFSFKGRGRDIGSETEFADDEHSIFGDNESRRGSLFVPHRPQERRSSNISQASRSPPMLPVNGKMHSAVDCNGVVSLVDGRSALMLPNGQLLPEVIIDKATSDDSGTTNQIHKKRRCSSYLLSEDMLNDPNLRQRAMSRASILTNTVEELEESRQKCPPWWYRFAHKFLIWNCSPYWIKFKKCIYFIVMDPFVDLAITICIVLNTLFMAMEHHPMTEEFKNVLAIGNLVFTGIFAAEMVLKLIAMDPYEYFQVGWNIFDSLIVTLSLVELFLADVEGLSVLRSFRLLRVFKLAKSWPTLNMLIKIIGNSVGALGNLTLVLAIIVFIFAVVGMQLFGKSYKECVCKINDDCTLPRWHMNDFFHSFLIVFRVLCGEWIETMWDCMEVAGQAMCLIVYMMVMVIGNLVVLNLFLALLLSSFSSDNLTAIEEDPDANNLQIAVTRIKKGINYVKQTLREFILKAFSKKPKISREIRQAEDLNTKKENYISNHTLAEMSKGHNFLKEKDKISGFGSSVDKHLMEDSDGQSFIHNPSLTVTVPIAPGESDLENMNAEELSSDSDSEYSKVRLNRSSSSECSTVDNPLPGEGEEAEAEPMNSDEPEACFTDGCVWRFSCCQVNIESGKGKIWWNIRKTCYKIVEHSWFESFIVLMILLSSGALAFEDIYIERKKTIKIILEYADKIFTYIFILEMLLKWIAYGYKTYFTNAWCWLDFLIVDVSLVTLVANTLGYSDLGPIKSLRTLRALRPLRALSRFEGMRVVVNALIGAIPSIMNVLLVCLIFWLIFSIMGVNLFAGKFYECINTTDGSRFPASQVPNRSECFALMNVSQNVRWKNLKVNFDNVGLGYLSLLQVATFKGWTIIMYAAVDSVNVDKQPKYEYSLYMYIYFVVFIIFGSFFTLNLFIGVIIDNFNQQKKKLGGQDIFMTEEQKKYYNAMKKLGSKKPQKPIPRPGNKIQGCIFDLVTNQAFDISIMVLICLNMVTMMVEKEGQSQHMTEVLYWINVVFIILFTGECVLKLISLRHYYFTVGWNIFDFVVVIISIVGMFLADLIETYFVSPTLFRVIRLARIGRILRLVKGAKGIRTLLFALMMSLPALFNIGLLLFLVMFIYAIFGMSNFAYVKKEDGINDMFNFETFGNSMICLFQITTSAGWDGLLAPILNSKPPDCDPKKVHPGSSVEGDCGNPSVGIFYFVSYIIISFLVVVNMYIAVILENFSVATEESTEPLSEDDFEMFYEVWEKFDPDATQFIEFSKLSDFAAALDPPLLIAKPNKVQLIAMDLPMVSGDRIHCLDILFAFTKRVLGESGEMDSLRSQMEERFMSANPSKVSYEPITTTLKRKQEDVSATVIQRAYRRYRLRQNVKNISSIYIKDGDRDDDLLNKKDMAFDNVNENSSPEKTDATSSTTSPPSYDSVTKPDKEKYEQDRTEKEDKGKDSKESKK

Compound	EC50 [1]	solubility [2]	half-life [3]	CL free [4]	also measured
NS(=O)(=O)c1cccc(NC(=O)c2cc(C(F)(F)F)cnc2N2CCCCC2)c1	220 nM	120 µM (≈ 51.4 µg/mL)	1.5 h	370 mL/min/kg	
NS(=O)(=O)c1cccc(NC(=O)c2cc(C(F)(F)F)cnc2N2CCCC(F)(F)C2)c1	240 nM	160 µM (≈ 74.3 µg/mL)	1.1 h	210 mL/min/kg	
COc1ccccc1NC(=O)c1nc2ccccc2nc1N1CCCCC1					IC50 [5]: 21000 nM; EC50 [6]: > 30000 nM; IC50 [7]: > 30000 nM; EC50 [8]: > 30000 nM
NS(=O)(=O)c1cccc(NC(=O)c2cccnc2N2CCCCC2)c1	22000 nM				
NS(=O)(=O)c1cccc(NC(=O)c2cc(C(F)(F)F)cnc2N2CCC3(CC2)CC3)c1	32 nM	53 µM (≈ 24.1 µg/mL)	2.8 h	250 mL/min/kg	
Cc1cc(C(=O)Nc2cccc(S(N)(=O)=O)c2)c(N2CCCCC2)nc1C	320 nM	11 µM (≈ 4.27 µg/mL)	0.57 h	2900 mL/min/kg	
Cc1cnc(N2CCCCC2)c(C(=O)Nc2cccc(S(N)(=O)=O)c2)c1	14000 nM	14 µM (≈ 5.24 µg/mL)			
NS(=O)(=O)c1cccc(NC(=O)c2nc3ccccc3nc2N2CCCCC2)c1	110 nM				
NS(=O)(=O)c1cccc(NC(=O)c2cc3ccccc3nc2N2CCOCC2)c1	2000 nM				
